# Measurements reported in PubChem BioAssay (NCI).
# Several values for one entry are separate records, joined by “and”; a condition that tells them apart may be missing. Identical values can stand only once.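 Five concentrations, 48 hours, 96-well plates. The concentration for 50% growth inhibition is given as GI50. The concentration for full growth arrest is given as TGI.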
# Tested on: SF-268 CNS
# Test: NCI-60 cell line screen, 48 h
Compound,GI50,TGI [µM]
CN(C)c1cc[c]([Sn]([c]2ccc(N(C)C)cc2)([c]2ccc(N(C)C)cc2)[c]2ccc(N(C)C)cc2)cc1,3.67 µM,25.4
C=C1C(=O)OC2/C=C(\COC(C)=O)CCC(OC(C)=O)C3=CC(OC3=O)C12 (stereo not given),–,50
CCCSc1nc(COC(=O)NC)c(COC(=O)NC)n1C,44.4 µM and > 100 µM,> 100
O=C1CCC(O)=C1N=Nc1ccccc1,–,> 100
CCN(CC)c1ccc(N=Nc2ccc(-c3nc4ccc[n+](C)c4s3)cc2)cc1,–,48.9
C[C@]12CC[C@@H]3c4cc(OCC(F)(F)F)c(O)cc4/C(=N/O)C[C@H]3[C@@H]1CC[C@@H]2O,–,21.7
COc1cc(/C=C/c2ccc(OC)c(OC)c2)cc(OC)c1,–,> 100
O=C1CSC(/C(=N/Nc2ccccc2)c2nc3ccccc3[nH]2)=N1,–,> 100
O=C(c1ccccc1)C1OC12C(=O)Nc1ccccc12 (stereo not given),–,> 100
COc1ccc2nc(NC(=O)C(=O)C(C#N)c3ccc([N+](=O)[O-])cc3)sc2c1 (stereo not given),–,> 100
COc1ccc(/C=C/c2cc(OC)cc(=O)o2)cc1,–,> 100
O=C1CSC(c2ccc(Cl)cc2Cl)N1c1ccc(F)cc1 (stereo not given),16.9 µM,32.2
O=C(O)[C@H](NS(=O)(=O)c1ccc([N+](=O)[O-])cc1)c1ccccc1,–,> 100
S=C1OC2CCCC[C@H]2O1 (stereo not given in full),–,> 100
O=C1/C(=C/c2cccc([N+](=O)[O-])c2)COc2ccc(Br)cc21,–,> 100
CSC(C1c2ccccc2N(c2ccc(C)cc2)c2[nH]c(=O)n(C)c(=O)c21)S(=O)(=O)c1ccc(C)cc1 (stereo not given),–,> 100
CCOC(=O)NC(=O)c1cn(CCCOC(=O)CCCCCCCCCCC(=O)OCCCn2cc(C(=O)NC(=O)OCC)c(=O)[nH]c2=O)c(=O)[nH]c1=O,–,> 100

Compound,GI50,TGI [µM]
COc1cc2[nH]c(C(=O)c3cc(OC)c(OC)c(OC)c3)c(N)c2cc1C#CC1CC1,9.08 µM,> 100
COc1cc(/C=C(\C#N)c2ccccc2)cc(OC)c1,–,> 100
N#Cc1cccnc1Cl,–,> 100
CC(=O)N[C@H]1CSSC[C@@H](C(N)=O)NC(=O)[C@H](C(C)C)NC(=O)[C@H](C)NC(=O)[C@H](Cc2cnc[nH]2)NC1=O,> 100 µM,> 100
O=C1CC2c3ccccc3CCC2c2ccccc21 (stereo not given),–,> 100
CCCCCCCCCCCC(=O)OCC1OC(OC)C(NC(=O)N(CCCl)N=O)C(O)C1O (stereo not given),–,16.4
C=CC/C=C/C/C=C/CCCCCCCc1cccc(O)c1C(=O)O,–,80.8
COc1ccc(OC)c2c(C(=O)O)c(Cc3ccccc3)ccc12,–,> 100
O=C(Nc1c(Cl)cc([N+](=O)[O-])cc1Cl)C(=O)C(C1OC(=O)c2ccccc21)[N+](=O)[O-] (stereo not given),–,> 100
Cc1c(C(=O)/C=C/c2ccccc2)[n+](=O)c2ccccc2n1[O-],–,40.1
CN(CCC#N)c1ccc(/C=C(\C#N)c2ccc(Br)cc2)cc1,> 100 µM,> 100
N#CC1CC2(C1)OCCS2 (stereo not given),–,> 100
COc1cc(NC(C)CCCN)c2nccc(C)c2c1 (stereo not given),–,> 100
C1C[OH+]CC[OH+]CC[OH+]CC[OH+]CC[OH+]1.[Cl-].[V],73.2 µM,> 100
CC(=O)C(=CN1CCN(C(=O)c2ccco2)C1=S)C(C)=O,2.57 µM,6.72
c1ccc(C2Nc3ccccc3C3OCCCC23)cc1 (stereo not given),–,> 100

# Tested on: SK-MEL-28 melanoma
# Test: NCI-60 cell line screen, 48 h
Compound,TGI [µM],GI50 [µM]
O=C1[C@@H]2C(c3ccccc3F)=NO[C@@H]2C(=O)N1c1ccc(Cc2ccc(N3C(=O)[C@H]4C(c5ccccc5F)=NO[C@H]4C3=O)cc2)cc1,> 100,–
C=CCc1ccc(Oc2cc(CC=C)c3c(c2O)O[C@@H](CO)[C@H]3c2ccc(O)c(-c3cc(CC=C)ccc3O)c2)cc1,> 100,–
Cn1c2ccccc2c(=O)c2ccc(Cl)cc21,> 10,–
O=C(NCO)NCOCn1c(=O)n(CO)c(=O)n(CO)c1=O,45.1,–
Clc1ccc2c(c1)-c1c3c(nn1-c1ccccc1)-c1ccccc1SC3O2 (stereo not given),> 100,–
COc1ccc(CCN2COc3c([C@@H](C)CCC=C(C)C)ccc(C)c3C2)cc1OC,4.94,2.21
O=C1OC2CCCC[C@@H]2C2C[C@]34CCCCC3[C@@H](C(=O)O4)C12 (stereo not given in full),> 100,–
COc1cc(/C=C/c2cc(/C=C/c3ccc(O)c(OC)c3)n(C(=O)Nc3ccc(C)cc3C)n2)ccc1O,2.46,0.509
C=C1C(=O)OC2/C=C(\COC(C)=O)CCC(OC(C)=O)C3=CC(OC3=O)C12 (stereo not given),11.6,–
CCCSc1nc(COC(=O)NC)c(COC(=O)NC)n1C,> 100,–
O=C1CCC(O)=C1N=Nc1ccccc1,> 100,–
C[C@]12CC[C@@H]3c4cc(OCC(F)(F)F)c(O)cc4/C(=N/O)C[C@H]3[C@@H]1CC[C@@H]2O,25.9,0.0637
NC(=O)NCc1c(C(N)=O)ncn1Cc1ccccc1,> 100,–
COc1cc(/C=C/c2ccc(OC)c(OC)c2)cc(OC)c1,> 100,–
O=C1CSC(/C(=N/Nc2ccccc2)c2nc3ccccc3[nH]2)=N1,79,–
O=C(c1ccccc1)C1OC12C(=O)Nc1ccccc12 (stereo not given),> 100,–
COc1ccc2nc(NC(=O)C(=O)C(C#N)c3ccc([N+](=O)[O-])cc3)sc2c1 (stereo not given),> 100,–
COc1ccc(/C=C/c2cc(OC)cc(=O)o2)cc1,> 100,–
O=C(O)[C@H](NS(=O)(=O)c1ccc([N+](=O)[O-])cc1)c1ccccc1,> 100,–

Compound,TGI [µM],GI50 [µM]
S=C1OC2CCCC[C@H]2O1 (stereo not given in full),> 100,–
O=C1/C(=C/c2cccc([N+](=O)[O-])c2)COc2ccc(Br)cc21,> 100,–
CSC(C1c2ccccc2N(c2ccc(C)cc2)c2[nH]c(=O)n(C)c(=O)c21)S(=O)(=O)c1ccc(C)cc1 (stereo not given),> 100,–
CCOC(=O)NC(=O)c1cn(CCCOC(=O)CCCCCCCCCCC(=O)OCCCn2cc(C(=O)NC(=O)OCC)c(=O)[nH]c2=O)c(=O)[nH]c1=O,> 100,–
COc1cc2[nH]c(C(=O)c3cc(OC)c(OC)c(OC)c3)c(N)c2cc1C#CC1CC1,> 100,7.52
COc1cc(/C=C(\C#N)c2ccccc2)cc(OC)c1,> 100,–
N#Cc1cccnc1Cl,> 100,–
CC(=O)N[C@H]1CSSC[C@@H](C(N)=O)NC(=O)[C@H](C(C)C)NC(=O)[C@H](C)NC(=O)[C@H](Cc2cnc[nH]2)NC1=O,> 100,> 100
O=C1CC2c3ccccc3CCC2c2ccccc21 (stereo not given),> 100,–
CCCCCCCCCCCC(=O)OCC1OC(OC)C(NC(=O)N(CCCl)N=O)C(O)C1O (stereo not given),35.6,–
C=CC/C=C/C/C=C/CCCCCCCc1cccc(O)c1C(=O)O,89.6,–
COc1ccc(OC)c2c(C(=O)O)c(Cc3ccccc3)ccc12,> 100,–
O=C(Nc1c(Cl)cc([N+](=O)[O-])cc1Cl)C(=O)C(C1OC(=O)c2ccccc21)[N+](=O)[O-] (stereo not given),> 100,–
Cc1c(C(=O)/C=C/c2ccccc2)[n+](=O)c2ccccc2n1[O-],31,–
CN(CCC#N)c1ccc(/C=C(\C#N)c2ccc(Br)cc2)cc1,> 100,> 100
N#CC1CC2(C1)OCCS2 (stereo not given),> 100,–
COc1cc(NC(C)CCCN)c2nccc(C)c2c1 (stereo not given),35.3,–
C1C[OH+]CC[OH+]CC[OH+]CC[OH+]CC[OH+]1.[Cl-].[V],> 100,25.1
CC(=O)C(=CN1CCN(C(=O)c2ccco2)C1=S)C(C)=O,25.8,3.94

# Tested on: ACHN renal
# Test: NCI-60 cell line screen, 48 h
Compound,TGI [µM],GI50 [µM]
O=C1[C@@H]2C(c3ccccc3F)=NO[C@@H]2C(=O)N1c1ccc(Cc2ccc(N3C(=O)[C@H]4C(c5ccccc5F)=NO[C@H]4C3=O)cc2)cc1,> 100,–
C=CCc1ccc(Oc2cc(CC=C)c3c(c2O)O[C@@H](CO)[C@H]3c2ccc(O)c(-c3cc(CC=C)ccc3O)c2)cc1,> 100,–
CC(CO)(CO)NCCCCn1ccc2c1C(=O)c1c(c(O)c3ccccc3c1O)C2=O,> 100,6.27
O=C(NCO)NCOCn1c(=O)n(CO)c(=O)n(CO)c1=O,> 100,–
Clc1ccc2c(c1)-c1c3c(nn1-c1ccccc1)-c1ccccc1SC3O2 (stereo not given),> 100,–
COc1ccc(CCN2COc3c([C@@H](C)CCC=C(C)C)ccc(C)c3C2)cc1OC,20.2,6.11
O=C1OC2CCCC[C@@H]2C2C[C@]34CCCCC3[C@@H](C(=O)O4)C12 (stereo not given in full),> 100,–
CN(C)c1cc[c]([Sn]([c]2ccc(N(C)C)cc2)([c]2ccc(N(C)C)cc2)[c]2ccc(N(C)C)cc2)cc1,34.2,14.5
COc1cc(/C=C/c2cc(/C=C/c3ccc(O)c(OC)c3)n(C(=O)Nc3ccc(C)cc3C)n2)ccc1O,2.11,0.412
